This test concerns the target T1, human FAAH (Homo sapiens, UniProt O00519).
T1 construct: expressed in transfected cells; host or cells: H4 cells stably transfected with human FAAH (Geneticin selection); crude membrane homogenates
T1 sequence (O00519 1-579): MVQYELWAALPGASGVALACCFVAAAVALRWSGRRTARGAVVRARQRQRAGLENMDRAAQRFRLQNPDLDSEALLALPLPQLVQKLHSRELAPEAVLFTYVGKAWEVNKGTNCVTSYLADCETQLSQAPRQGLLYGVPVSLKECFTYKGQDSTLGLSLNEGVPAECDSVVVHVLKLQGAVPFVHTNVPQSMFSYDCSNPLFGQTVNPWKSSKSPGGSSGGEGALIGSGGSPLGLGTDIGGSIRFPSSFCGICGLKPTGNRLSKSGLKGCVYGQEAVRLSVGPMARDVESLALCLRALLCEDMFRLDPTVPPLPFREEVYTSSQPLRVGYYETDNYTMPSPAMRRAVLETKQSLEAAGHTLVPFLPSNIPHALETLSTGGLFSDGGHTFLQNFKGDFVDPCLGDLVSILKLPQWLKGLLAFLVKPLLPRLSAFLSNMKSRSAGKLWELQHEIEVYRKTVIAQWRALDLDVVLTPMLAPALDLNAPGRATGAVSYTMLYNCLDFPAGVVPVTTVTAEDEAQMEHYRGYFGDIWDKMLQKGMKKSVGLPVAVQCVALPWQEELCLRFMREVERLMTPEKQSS
The test can be described thus: Determination of FAAH activity (membrane homogenates of H4-FAAH cells, [3H]-anandamide hydrolysis). In kind it is biochemical. As to conditions: transfected human FAAH, H4-FAAH cell membranes, 10 μM anandamide, room temperature, one hour. As for the experimental part:
Homogenates of crude membranes were prepared from H4 cells that express transfected human FAAH (H4-FAAH cells). Briefly, cells were grown in DMEM supplemented with 10% FBS and Geneticin at a final concentration of 500 μg/ml (Gibco BRL, Rockville, Md.). Confluent cultures of H4-FAAH cells were rinsed twice with phosphate-buffered saline [138 mM NaCl, 4.1 mM KCl, 5.1 mM Na2PO4, 1.5 mM KH2PO4 (pH 7.5), 37° C.] and incubated for 5-10 min. at 4° C. in lysis buffer [1 mM sodium bicarbonate]. Cells were transferred from plates to polypropylene tubes (16×100 mm), homogenized and centrifuged at 32,000×g for 30 min. Pellets were resuspended by homogenization in lysis buffer and centrifuged at 32,000×g for 30 min. Pellets were resuspended in lysis buffer (15-20 μg protein/ml) then stored at −80° C. until needed. On the day of an experiment, membranes were diluted to 2.67 μg protein/ml in 125 mM Tris-Cl, pH 9.0
Activity of FAAH was measured using a modification of the method described by Omeir et al., 1995 (Life Sci 56:1999, 1995). Membrane homogenates (240 ng protein) were incubated at room temperature for one hour with 1.67 nM anandamide [ethanolamine 1-^3H] (American Radiolabeled Chemical Inc., St Louis, Mo.) and 10 μM anandamide (Sigma/RBI, St. Louis, Mo.) in the absence and presence of inhibitors. The reaction was stopped by the addition of 1 volume of a solution of methanol and dichloroethane (1:1). The mixture was shaken and then centrifuged at 1000×g for 15 min. to separate the aqueous and organic phases. An aliquot of the aqueous phase, containing [^3H]-ethanolamine was withdrawn and counted by scintillation spectroscopy. Data were expressed as the percentage of [^3H]-ethanolamine formed versus vehicle, after subtraction of the background radioactivity determined in the presence of 10 μM arachidonyl trifluoromethyl ketone (ATFMK), an inhibitor of FAAH. IC50 values were determined using a four-parameter logistic equation for dose-response curves.

A value given as a limit tells only on which side of the number the result lay.

By IC50 is commonly meant the concentration at which inhibition is half-maximal. Read a low IC50 as greater potency. In the case of `Cc1nc(-c2ccccc2)c(-c2ccccc2)n1CCCOc1ccc(NC(=O)Oc2ccc(F)c(F)c2)cc1` [Example 55, {4-[3-(2-Methyl-4,5-diphenyl-imidazol-1-yl)-propoxy]-phenyl}-carbamic acid 3,4-difluoro-phenyl ester], the concentration for half-maximal inhibition (IC50) fell in the range of 100 to 1000 nM.

On to `Cc1nc(-c2ccccc2)c(-c2ccccc2)n1CCCCCCCNC(=O)Oc1ccc(Cl)cc1` [Example 24, [7-(2-Methyl-4,5-diphenyl-imidazol-1-yl)-heptyl]-carbamic acid 4-chloro-phenyl ester], for which the IC50 was less than 10 nM.

As to `Cc1nc(-c2ccccc2)c(-c2ccccc2)n1CCCOc1ccc(NC(=O)Oc2cccc(Cl)c2)cc1` [Example 59, {4-[3-(2-Methyl-4,5-diphenyl-imidazol-1-yl)-propoxy]-phenyl}-carbamic acid 3-chloro-phenyl ester], the concentration for half-maximal inhibition (IC50) fell in the range of 100 to 1000 nM.

In the case of `COc1ccccc1OC(=O)NCCCCCCCn1c(C)nc(-c2ccccc2)c1-c1ccccc1` [Example 29, [7-(2-Methyl-4,5-diphenyl-imidazol-1-yl)-heptyl]-carbamic acid 2-methoxy-phenyl ester], the half-inhibitory concentration (IC50) lay in the range of 10 to 100 nM.

`Cc1nc(-c2ccccc2)c(-c2ccccc2)n1CCCCCCNC(=O)O/N=C/c1ccc(F)cc1` [Example 47, 4-Fluorobenzaldehyde,O-[6-(2-methyl-4,5-diphenyl-1H-imidazol-1-yl)hexylaminocarbonyl]oxime]: the IC50 lay within 10 to 100 nM.

With `Cc1nc(-c2ccccc2)c(-c2ccccc2)n1CCCCCCNC(=O)Oc1ccc(F)cc1F` [Example 11, [6-(2-Methyl-4,5-diphenyl-imidazol-1-yl)-hexyl]-carbamic acid 2,4-difluoro-phenyl ester], the half-inhibitory concentration (IC50) was less than 10 nM.

Consider `CCOC(=O)NCCCCCn1c(C)nc(-c2ccccc2)c1-c1ccccc1` [Example 30, [5-(2-Methyl-4,5-diphenyl-imidazol-1-yl)-pentyl]-carbamic acid ethyl ester], for which the 50% inhibitory concentration (IC50) is 100 to 1000 nM.

Turning to `Cc1nc(-c2ccc(F)cc2)c(-c2ccc(F)cc2)n1CCCCCCNC(=O)Oc1ccccc1F` [Example 43, {6-[4,5-Bis-(4-fluoro-phenyl)-2-methyl-imidazol-1-yl]-hexyl}-carbamic acid 2-fluoro-phenyl ester], the IC50 was less than 10 nM.

Take `CC(C)=NOC(=O)NCCCCCCn1c(C)nc(-c2ccccc2)c1-c1ccccc1` [Example 6, 2-Propanone,O-[6-(2-methyl-4,5-diphenyl-1H-imidazol-1-yl)hexylaminocarbonyl]oxime]: the IC50 lay within 10 to 100 nM.

For the compound `CCc1nc(-c2ccccc2)c(-c2ccccc2)n1CCCCCCNC(=O)OC(C)CC` (centres unmarked) [Example 3], the half-maximal inhibitory concentration (IC50) fell in the range of 1000 to 10000 nM.

`Cc1ccccc1OC(=O)NCCCCCCn1c(C)nc(-c2ccccc2)c1-c1ccccc1` [Example 14, [6-(2-Methyl-4,5-diphenyl-imidazol-1-yl)-hexyl]-carbamic acid o-tolyl ester] gave an IC50 of less than 10 nM.

Turning to `COc1ccc(OC(=O)Nc2ccc(OCCCn3c(C)nc(-c4ccccc4)c3-c3ccccc3)cc2)cc1` [Example 56, {4-[3-(2-Methyl-4,5-diphenyl-imidazol-1-yl)-propoxy]-phenyl}-carbamic acid 4-methoxy-phenyl ester], the half-inhibitory concentration (IC50) is 100 to 1000 nM.

For `COc1ccc(OC(=O)NCCCCCCCn2c(C)nc(-c3ccccc3)c2-c2ccccc2)cc1` [Example 25, [7-(2-Methyl-4,5-diphenyl-imidazol-1-yl)-heptyl]-carbamic acid 4-methoxy-phenyl ester], the IC50 was in the range of 10 to 100 nM.

For `Cc1nc(-c2ccccc2)c(-c2ccccc2)n1CCCCCCNC(=O)O/N=C/c1cccc([N+](=O)[O-])c1` [Example 49, 3-Nitrobenzaldehyde, O-[6-(2-methyl-4,5-diphenyl-1H-imidazol-1-yl)hexylaminocarbonyl]oxime], the half-inhibitory concentration (IC50) was in the range of 10 to 100 nM.

Consider `COc1ccc(OC(=O)NCCCCCCn2c(C)nc(-c3ccccc3)c2-c2ccccc2)cc1` [Example 13, [6-(2-Methyl-4,5-diphenyl-imidazol-1-yl)-hexyl]-carbamic acid 4-methoxy-phenyl ester], for which the IC50 fell in the range of 10 to 100 nM.

Compound `Cc1nc(-c2ccccc2)c(-c2ccccc2)n1CCCCCC(C)NC(=O)Oc1ccccc1F` (centres unmarked) [Example 71, [1-Methyl-6-(2-methyl-4,5-diphenyl-imidazol-1-yl)-hexyl]-carbamic acid 2-fluoro-phenyl ester] returned an IC50 of less than 10 nM.

On to `Cc1nc(-c2ccccc2)c(-c2ccccc2)n1CCCCCCNC(=O)Oc1ccc(Cl)cc1` [Example 12, [6-(2-Methyl-4,5-diphenyl-imidazol-1-yl)-hexyl]-carbamic acid 4-chloro-phenyl ester], for which the IC50 was less than 10 nM.

`Cc1nc(-c2ccccc2)c(-c2ccccc2)n1CCCCCNC(=O)Oc1ccccc1F` [Example 34, [5-(2-Methyl-4,5-diphenyl-imidazol-1-yl)-pentyl]-carbamic acid 2-fluoro-phenyl ester] displayed an IC50 of 10 to 100 nM.

For `COc1cccc(OC)c1OC(=O)NCCCCCCCn1c(C)nc(-c2ccccc2)c1-c1ccccc1` [Example 28, [7-(2-Methyl-4,5-diphenyl-imidazol-1-yl)-heptyl]-carbamic acid 2,6-dimethoxy-phenyl ester], the concentration for half-maximal inhibition (IC50) was in the range of 100 to 1000 nM.

The compound `Cc1nc(-c2ccccc2)c(-c2ccccc2)n1CCCCCC(NC(=O)Oc1ccccc1F)C(C)C` (centres unmarked) [Example 73, [1-Isopropyl-6-(2-methyl-4,5-diphenyl-imidazol-1-yl)-hexyl]-carbamic acid 2-fluoro-phenyl ester] yielded a half-inhibitory concentration (IC50) of 100 to 1000 nM.

With `Cc1nc(-c2ccccc2)c(-c2ccccc2)n1CCCCCC(NC(=O)Oc1ccccc1F)c1ccccc1` (centres unmarked) [Example 74, [6-(2-Methyl-4,5-diphenyl-imidazol-1-yl)-1-phenyl-hexyl]-carbamic acid 2-fluoro-phenyl ester], the concentration for half-maximal inhibition (IC50) fell in the range of 100 to 1000 nM.

In turn, `Cc1nc(-c2ccccc2)c(-c2ccccc2)n1CCCCCNC(=O)Oc1ccc(F)cc1F` [Example 33, [5-(2-Methyl-4,5-diphenyl-imidazol-1-yl)-pentyl]-carbamic acid 2,4-difluoro-phenyl ester] showed a half-maximal inhibitory concentration (IC50) of 10 to 100 nM.

For `Cc1nc(-c2ccccc2)c(-c2ccccc2)n1CCCCCCNC(=O)OCc1ccccc1` [Example 5, [6-(2-Methyl-4,5-diphenyl-imidazol-1-yl)-hexyl]-carbamic acid benzyl ester], the 50% inhibitory concentration (IC50) is 1000 to 10000 nM.

Take `Cc1nc(-c2ccccc2)c(-c2ccccc2)n1CCCCCCNC(=O)O/N=C/c1ccccc1` [Example 46, Benzaldehyde, O-[6-(2-methyl-4,5-diphenyl-1H-imidazol-1-yl)hexylaminocarbonyl]oxime]: the IC50 was in the range of 10 to 100 nM.

Consider `Cc1nc(-c2ccccc2)c(-c2ccccc2)n1CCCOc1ccc(NC(=O)Oc2ccc(Cl)cc2)cc1` [Example 57, {4-[3-(2-Methyl-4,5-diphenyl-imidazol-1-yl)-propoxy]-phenyl}-carbamic acid 4-chloro-phenyl ester], for which the IC50 was in the range of 100 to 1000 nM.

`Cc1nc(-c2ccccc2)c(-c2ccccc2)n1CCCCCCNC(=O)O/N=C/c1ccc([N+](=O)[O-])cc1` [Example 50, 4-Nitrobenzaldehyde, O-{6-(2-methyl-4,5-diphenyl-1H-imidazol-1-yl)hexylaminocarbonyl]oxime] displayed an IC50 of 10 to 100 nM.

`COC(=O)NCCCCCCCn1c(C)nc(-c2ccccc2)c1-c1ccccc1` [Example 18, [7-(2-Methyl-4,5-diphenyl-imidazol-1-yl)-heptyl]-carbamic acid methyl ester] yielded an IC50 of 100 to 1000 nM.

Compound `COc1ccc(OC(=O)NCCCCCn2c(C)nc(-c3ccccc3)c2-c2ccccc2)cc1` [Example 36, [5-(2-Methyl-4,5-diphenyl-imidazol-1-yl)-pentyl]-carbamic acid 4-methoxy-phenyl ester] gave an IC50 of 10 to 100 nM.

On to `Cc1nc(-c2ccccc2)c(-c2ccccc2)n1CCCCCCNC(=O)O/N=C/c1cccnc1` [Example 51, 3-Pyridinecarboxaldehyde, O-[6-(2-methyl-4,5-diphenyl-1H-imidazol-1-yl)hexylaminocarbonyl]oxime], for which the 50% inhibitory concentration (IC50) lay within 10 to 100 nM.
